From publication PMC9369419 (International Journal of Molecular Sciences, 2022)
pKi: −log10 of the molar value.

Assays:
[1] = biological target: T1, GluA2 (Rattus norvegicus, UniProt P19491); experiment: Radioligand binding at recombinant homomeric GluA2 in Sf9 membranes; settings: recombinant rat homomeric receptor, [3H]-(RS)-AMPA, mean ± SEM
T1 construct: made in house; host or cells: Sf9 insect cells (membranes)
Experimental: Ligand binding affinities at recombinant rat homomeric GluA2, GluK1−3, and GluK5 were determined as previously detailed. […] The filters were dried at 70 °C for 1 h, and 50 μL/well Microscint 20 (PerkinElmer, Waltham, MA, USA) was added. Radioactivity was detected with a TopCounter (PerkinElmer, Waltham, MA, USA). GluA2 and GluK5 assays were filtered on GF/C type filters using Millipore 12-well filtration manifolds (Merck Life Science, Søborg, Denmark) and washed twice with ice-cold assay buffer. Filters were placed in pony vials (PerkinElmer, Waltham, MA, USA), 3 mL of Ultima Gold scintillation fluid (PerkinElmer, Waltham, MA, USA) was added, and DPM (disintegrations per minute) were determined using a TriCarb 2900 scintillation counter (PerkinElmer, Waltham, MA, USA).
All competition curves (n ≥ 3 per ligand) were determined in triplicate. Data were analyzed using GraphPad Prism 6 (GraphPad Software, San Diego, CA, USA) to determine ligand affinity (Ki) and Hill coefficient (nH) using the one-site Ki and four-parameter logistics equations, respectively.

[2] = biological target: T2, human mGluR5 (Homo sapiens, UniProt P41594); experiment: mGluR5 functional assay (IP1 accumulation, HEK293A cells); format: cell-based; settings: 0.1 mM compound
T2 construct: Flag; expressed in transfected cells; host or cells: HEK293A (transient, Lipofectamine 2000)
T2 sequence (P41594 21-1212): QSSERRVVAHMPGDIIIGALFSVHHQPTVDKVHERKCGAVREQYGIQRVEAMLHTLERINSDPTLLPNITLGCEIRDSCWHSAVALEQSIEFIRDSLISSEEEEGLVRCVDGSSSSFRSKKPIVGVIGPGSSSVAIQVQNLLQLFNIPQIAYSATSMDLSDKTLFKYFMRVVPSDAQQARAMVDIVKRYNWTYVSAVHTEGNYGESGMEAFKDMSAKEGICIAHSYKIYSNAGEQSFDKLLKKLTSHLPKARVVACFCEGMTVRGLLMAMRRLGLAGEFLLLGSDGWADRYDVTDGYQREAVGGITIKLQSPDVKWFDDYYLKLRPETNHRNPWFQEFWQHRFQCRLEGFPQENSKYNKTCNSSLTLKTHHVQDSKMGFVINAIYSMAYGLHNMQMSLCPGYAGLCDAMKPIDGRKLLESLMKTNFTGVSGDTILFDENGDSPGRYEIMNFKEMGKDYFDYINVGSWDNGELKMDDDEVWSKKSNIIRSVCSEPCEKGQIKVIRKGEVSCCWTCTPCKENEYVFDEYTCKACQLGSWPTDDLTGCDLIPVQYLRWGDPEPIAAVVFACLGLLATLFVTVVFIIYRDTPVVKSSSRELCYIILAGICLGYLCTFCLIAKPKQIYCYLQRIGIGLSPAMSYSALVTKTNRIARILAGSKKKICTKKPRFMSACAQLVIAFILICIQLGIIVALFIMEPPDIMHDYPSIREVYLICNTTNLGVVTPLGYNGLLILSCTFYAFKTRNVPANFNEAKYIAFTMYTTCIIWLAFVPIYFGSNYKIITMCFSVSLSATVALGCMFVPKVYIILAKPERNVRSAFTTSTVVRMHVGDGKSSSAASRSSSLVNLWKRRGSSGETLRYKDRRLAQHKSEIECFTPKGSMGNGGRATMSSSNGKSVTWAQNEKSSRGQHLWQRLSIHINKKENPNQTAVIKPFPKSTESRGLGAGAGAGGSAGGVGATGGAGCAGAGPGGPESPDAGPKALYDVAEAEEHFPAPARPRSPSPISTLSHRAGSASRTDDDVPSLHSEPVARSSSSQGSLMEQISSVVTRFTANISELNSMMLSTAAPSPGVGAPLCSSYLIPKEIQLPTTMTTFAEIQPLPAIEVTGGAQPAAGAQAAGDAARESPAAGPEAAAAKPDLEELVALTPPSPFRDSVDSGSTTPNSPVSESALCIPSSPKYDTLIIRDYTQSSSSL
Source text: Dulbecco’s modified Eagle medium (DMEM), dialyzed fetal bovine serum (FBS), Opti-MEM, penicillin-streptomycin, Dulbecco’s phosphate-buffered saline (DPBS), Hank’s balanced salt solution (HBSS) and Lipofectamine 2000 were purchased from Thermo Fisher Scientific (Waltham, MA, USA). An IP-One Gq kit was purchased from Cisbio (Codolet, France). Quisqualate and poly-D-lysine (PDL) hydrobromide were purchased from Sigma-Aldrich (St. Louis, MO, USA). Falcon clear, tissue culture-treated 96-well plates were from Corning Inc. (Corning, NY, USA). OptiPlate-384 white, opaque 384-well plates were from PerkinElmer, (Waltham, MA, USA). L-AP4 and LY341495 were purchased from Tocris Bioscience (Bristol, UK). The HEK293A cells were a kind gift from Dr. Asuka Inoue (Tohoku University, Sendai, Japan). Plasmids encoding human mGluR4 and Flag-tagged human mGluR5 were kind gifts from Jesper M. Mathiesen (University of Copenhagen, København, Denmark). […]
Cell culture and IP1 Assay. […] IP1 accumulation was measured on an EnVision 2104 Multilabel Reader using a 340/60 nm excitation filter and 615/8.5 nm (donor) and 665/7.5 nm (acceptor) emission filters. HTRF ratios were calculated as the ratio of acceptor over donor emission (665 nm/615 nm) and converted to IP1 concentrations with an IP1 standard curve according to the instructions from the kit manufacturer.

T1 sequence (P19491 22-883): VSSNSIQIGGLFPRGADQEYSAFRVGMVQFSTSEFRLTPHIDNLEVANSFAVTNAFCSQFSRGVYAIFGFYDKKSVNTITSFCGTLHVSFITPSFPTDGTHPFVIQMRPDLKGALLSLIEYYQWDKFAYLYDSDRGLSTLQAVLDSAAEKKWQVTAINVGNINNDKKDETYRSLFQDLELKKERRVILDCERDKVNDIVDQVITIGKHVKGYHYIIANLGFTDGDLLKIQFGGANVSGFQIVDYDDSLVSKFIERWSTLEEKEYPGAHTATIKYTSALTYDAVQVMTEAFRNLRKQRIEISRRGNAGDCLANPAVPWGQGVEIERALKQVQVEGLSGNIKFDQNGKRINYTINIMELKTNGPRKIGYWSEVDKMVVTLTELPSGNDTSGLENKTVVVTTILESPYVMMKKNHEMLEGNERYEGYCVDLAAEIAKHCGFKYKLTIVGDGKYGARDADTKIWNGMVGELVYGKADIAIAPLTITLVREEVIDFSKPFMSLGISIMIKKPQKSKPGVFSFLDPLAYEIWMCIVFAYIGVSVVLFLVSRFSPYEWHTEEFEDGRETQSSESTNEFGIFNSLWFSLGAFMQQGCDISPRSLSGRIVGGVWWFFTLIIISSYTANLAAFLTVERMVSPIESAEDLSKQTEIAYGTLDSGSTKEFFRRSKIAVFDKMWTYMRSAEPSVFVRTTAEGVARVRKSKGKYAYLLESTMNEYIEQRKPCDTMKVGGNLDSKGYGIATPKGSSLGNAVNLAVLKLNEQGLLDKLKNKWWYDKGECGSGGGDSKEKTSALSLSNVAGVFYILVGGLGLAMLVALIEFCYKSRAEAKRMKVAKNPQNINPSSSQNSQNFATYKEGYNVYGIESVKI

## O=C(Nn1c(=O)c(=O)[nH]c2cc(C#Cc3cnc4cccnn34)ccc21)c1ccccc1 [Compound 28]
[1]
  pKi: < 4.00
[2]
  agonist or antagonist activity at mGluR5: neither agonistic nor antagonistic
